The record followed here is patent US11851426B2, “Bicyclic amines as CDK2 inhibitors” (Incyte Corporation, priority 2019, dated 2023).

This assay concerns the target CDK2/Cyclin E1 (Homo sapiens (Human), UniProt P24941). The experiment in a line: CDK2/Cyclin E1 HTRF enzyme activity assay. Type of assay: biochemical. The note with it: 1 mM ATP; CDK2/Cyclin E1 0.25 nM; 60 minutes at room temperature. In short, it runs like this:
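HTRF read-out of 4E-BP1 (Thr37/46) peptide phosphorylation (ULight peptide 50 nM) by 0.25 nM baculovirus-made GST-CDK2/FLAG-Cyclin E1, with ATP at 50 μM or 1 mM, 60 min at room temperature, pH 7.5. Eu-anti-phospho antibody with EDTA quench; IC50 fitted by three- or four-parameter dose-response.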
In general, IC50 refers to the concentration that inhibits the measured activity by half. Read a high IC50 as a need for much substance. Molecule `C[C@@H]1CN(S(C)(=O)=O)CC[C@@H]1Nc1nc2cnc(-c3cn[nH]c3)c(OC3CC3)n2n1` [Example 109, 5-Cyclopropoxy-N-((3R,4S)-3-methyl-1-(methylsulfonyl)piperidin-4-yl)-6-(1H-pyrazol-4-yl)-[1,2,4]triazolo[1,5-a]pyrazin-2-amine] registered an IC50 not above 20 nM. Molecule `C[C@@H]1CN(S(C)(=O)=O)CC[C@@H]1Nc1nc2cnc(-c3cn[nH]c3)c(OC3CCC(F)(F)CC3)n2n1` [Example 110, 5-((4,4-Difluorocyclohexyl)oxy)-N-((3R,4S)-3-methyl-1-(methylsulfonyl)piperidin-4-yl)-6-(1H-pyrazol-4-yl)-[1,2,4]triazolo[1,5-a]pyrazin-2-amine] came in with an IC50 not above 20 nM. In turn, `CC1COCCC1Oc1c(-c2cn[nH]c2)ncc2nc(N[C@H]3CCN(S(C)(=O)=O)C[C@H]3C)nn12` (stereo partly drawn) [Example 111, N-((3R,4S)-3-Methyl-1-(methylsulfonyl)piperidin-4-yl)-5-((3-methyltetrahydro-2H-pyran-4-yl)oxy)-6-(1H-pyrazol-4-yl)-[1,2,4]triazolo[1,5-a]pyrazin-2-amine] returned an IC50 not above 20 nM. Then `CC1CC(Oc2c(-c3cn[nH]c3)ncc3nc(N[C@H]4CCN(S(C)(=O)=O)C[C@H]4C)nn23)CCO1` (stereo partly drawn) [Example 112, N-((3R,4S)-3-Methyl-1-(methylsulfonyl)piperidin-4-yl)-5-((2-methyltetrahydro-2H-pyran-4-yl)oxy)-6-(1H-pyrazol-4-yl)-[1,2,4]triazolo[1,5-a]pyrazin-2-amine], with not above 20 nM; and `C[C@@H]1CN(S(C)(=O)=O)CC[C@@H]1Nc1nc2cnc(-c3cn[nH]c3)c(OC3CCOC(C(F)(F)F)C3)n2n1` (stereo partly drawn) [Example 113, N-((3R,4S)-3-Methyl-1-(methylsulfonyl)piperidin-4-yl)-6-(1H-pyrazol-4-yl)-5-((2-(trifluoromethyl)tetrahydro-2H-pyran-4-yl)oxy)-[1,2,4]triazolo[1,5-a]pyrazin-2-amine], with not above 20 nM. In the case of `C[C@@H]1CN(S(C)(=O)=O)CC[C@@H]1Nc1nc2cnc(-c3cn[nH]c3)c(OCC3(C(F)(F)F)CCC3)n2n1` [Example 114, N-((3R,4S)-3-Methyl-1-(methylsulfonyl)piperidin-4-yl)-6-(1H-pyrazol-4-yl)-5-((1-(trifluoromethyl)cyclobutyl)methoxy)-[1,2,4]triazolo[1,5-a]pyrazin-2-amine], the IC50 was not above 20 nM. On to `C[C@@H]1CN(S(C)(=O)=O)CC[C@@H]1Nc1nc2cnc(-c3cn[nH]c3)c(OCC3CC3)n2n1` [Example 115, 5-(Cyclopropylmethoxy)-N-((3R,4S)-3-methyl-1-(methylsulfonyl)piperidin-4-yl)-6-(1H-pyrazol-4-yl)-[1,2,4]triazolo[1,5-a]pyrazin-2-amine], for which the IC50 is not above 20 nM. Then `CC(C)CCOc1c(-c2cn[nH]c2)ncc2nc(N[C@H]3CCN(S(C)(=O)=O)C[C@H]3C)nn12` [Example 116, 5-(Isopentyloxy)-N-((3R,4S)-3-methyl-1-(methylsulfonyl)piperidin-4-yl)-6-(1H-pyrazol-4-yl)-[1,2,4]triazolo[1,5-a]pyrazin-2-amine], with not above 20 nM; and `CS(=O)(=O)N1CCC(Nc2nc3cnc(-c4cn[nH]c4)c(OC4CCC4)n3n2)CC1` [Example 117, 5-Cyclobutoxy-N-(1-(methylsulfonyl)piperidin-4-yl)-6-(1H-pyrazol-4-yl)-[1,2,4]triazolo[1,5-a]pyrazin-2-amine], with not above 20 nM; and `CS(=O)(=O)N1CCC(Nc2nc3cnc(-c4cn[nH]c4)c(OC4CC(F)(F)C4)n3n2)CC1` [Example 118, 5-(3,3-Difluorocyclobutoxy)-N-(1-(methylsulfonyl)piperidin-4-yl)-6-(1H-pyrazol-4-yl)-[1,2,4]triazolo[1,5-a]pyrazin-2-amine], with not above 20 nM. With `CS(=O)(=O)N1CCC(Nc2nc3cnc(-c4cn[nH]c4)c(OC4CCOC(C(F)(F)F)C4)n3n2)CC1` (stereo not shown) [Example 119, N-(1-(Methylsulfonyl)piperidin-4-yl)-6-(1H-pyrazol-4-yl)-5-((2-(trifluoromethyl)tetrahydro-2H-pyran-4-yl)oxy)-[1,2,4]triazolo[1,5-a]pyrazin-2-amine] the figure was not above 20 nM. In the case of `CS(=O)(=O)N1CCC(Nc2nc3cnc(-c4cn[nH]c4)c(OCC4(C(F)(F)F)CCC4)n3n2)CC1` [Example 120, N-(1-(Methylsulfonyl)piperidin-4-yl)-6-(1H-pyrazol-4-yl)-5-((1-(trifluoromethyl)cyclobutyl)methoxy)-[1,2,4]triazolo[1,5-a]pyrazin-2-amine], the IC50 was not above 20 nM. With `CC(C)CCOc1c(-c2cn[nH]c2)ncc2nc(NC3CCN(S(C)(=O)=O)CC3)nn12` [Example 121, 5-(Isopentyloxy)-N-(1-(methylsulfonyl)piperidin-4-yl)-6-(1H-pyrazol-4-yl)-[1,2,4]triazolo[1,5-a]pyrazin-2-amine] the figure was not above 20 nM; with `CCOc1c(-c2cn[nH]c2)ncc2nc(NC3CCN(S(C)(=O)=O)CC3)nn12` [Example 122, 5-Ethoxy-N-(1-(methylsulfonyl)piperidin-4-yl)-6-(1H-pyrazol-4-yl)-[1,2,4]triazolo[1,5-a]pyrazin-2-amine], not above 20 nM; with `CCSc1c(-c2cn[nH]c2)ncc2nc(NC3CCN(S(C)(=O)=O)CC3)nn12` [Example 123, 5-(Ethylthio)-N-(1-(methylsulfonyl)piperidin-4-yl)-6-(1H-pyrazol-4-yl)-[1,2,4]triazolo[1,5-a]pyrazin-2-amine], not above 20 nM. Then `CC(C)Sc1c(-c2cn[nH]c2)ncc2nc(NC3CCN(S(C)(=O)=O)CC3)nn12` [Example 124, 5-(Isopropylthio)-N-(1-(methylsulfonyl)piperidin-4-yl)-6-(1H-pyrazol-4-yl)-[1,2,4]triazolo[1,5-a]pyrazin-2-amine], with not above 20 nM; and `C[C@@H]1CN(S(C)(=O)=O)CC[C@@H]1Nc1nc2cnc(-c3cn[nH]c3)c(N3CCCCC3)n2n1` [Example 125, N-((3R,4S)-3-Methyl-1-(methylsulfonyl)piperidin-4-yl)-5-(piperidin-1-yl)-6-(1H-pyrazol-4-yl)-[1,2,4]triazolo[1,5-a]pyrazin-2-amine], with not above 20 nM; and `CS(=O)(=O)N1CCC(Nc2nc3cnc(-c4cn[nH]c4)c(N4CCCCC4)n3n2)CC1` [Example 126, N-(1-(Methylsulfonyl)piperidin-4-yl)-5-(piperidin-1-yl)-6-(1H-pyrazol-4-yl)-[1,2,4]triazolo[1,5-a]pyrazin-2-amine], with not above 20 nM.

Molecule `C[C@@H]1CN(S(C)(=O)=O)CC[C@@H]1Nc1nc2cnc(-c3cn[nH]c3)c(N3CCCC(F)(F)C3)n2n1` [Example 127, 5-(3,3-Difluoropiperidin-1-yl)-N-((3R,4S)-3-methyl-1-(methylsulfonyl)piperidin-4-yl)-6-(1H-pyrazol-4-yl)-[1,2,4]triazolo[1,5-a]pyrazin-2-amine] registered an IC50 not above 20 nM. For `CS(=O)(=O)N1CCC(Nc2nc3cnc(-c4cn[nH]c4)c(N4CCC[C@@H](F)C4)n3n2)CC1` [Example 128, (R)-5-(3-Fluoropiperidin-1-yl)-N-(1-(methylsulfonyl)piperidin-4-yl)-6-(1H-pyrazol-4-yl)-[1,2,4]triazolo[1,5-a]pyrazin-2-amine], the IC50 is not above 20 nM. `CS(=O)(=O)N1CCC(Nc2nc3cnc(-c4cn[nH]c4)c(N4CCC[C@H](F)C4)n3n2)CC1` [Example 129, (S)-5-(3-Fluoropiperidin-1-yl)-N-(1-(methylsulfonyl)piperidin-4-yl)-6-(1H-pyrazol-4-yl)-[1,2,4]triazolo[1,5-a]pyrazin-2-amine] showed an IC50 not above 20 nM. With `CS(=O)(=O)N1CCC(Nc2nc3cnc(-c4cn[nH]c4)c(N4CCC(F)(F)C4)n3n2)CC1` [Example 130, 5-(3,3-Difluoropyrrolidin-1-yl)-N-(1-(methylsulfonyl)piperidin-4-yl)-6-(1H-pyrazol-4-yl)-[1,2,4]triazolo[1,5-a]pyrazin-2-amine] the figure was not above 20 nM; with `CS(=O)(=O)N1CCC(Nc2nc3cnc(-c4cn[nH]c4)c(N4CC5CCC4C5)n3n2)CC1` (stereo not shown) [Example 131, 5-(2-Azabicyclo[2.2.1]heptan-2-yl)-N-(1-(methylsulfonyl)piperidin-4-yl)-6-(1H-pyrazol-4-yl)-[1,2,4]triazolo[1,5-a]pyrazin-2-amine], not above 20 nM. On to `C[C@H]1CCCCN1c1c(-c2cn[nH]c2)ncc2nc(NC3CCN(S(C)(=O)=O)CC3)nn12` [Example 132, (A)-5-(2-Methylpiperidin-1-yl)-N-(1-(methylsulfonyl)piperidin-4-yl)-6-(1H-pyrazol-4-yl)-[1,2,4]triazolo[1,5-a]pyrazin-2-amine], for which the 50% inhibitory concentration (IC50) was not above 20 nM. Molecule `C[C@H]1CCCN1c1c(-c2cn[nH]c2)ncc2nc(NC3CCN(S(C)(=O)=O)CC3)nn12` [Example 133, (S)-5-(2-Methylpyrrolidin-1-yl)-N-(1-(methylsulfonyl)piperidin-4-yl)-6-(1H-pyrazol-4-yl)-[1,2,4]triazolo[1,5-a]pyrazin-2-amine] displayed an IC50 not above 20 nM.

In the case of `CS(=O)(=O)N1CCC(Nc2nc3cnc(-c4cn[nH]c4)c(N4CC[C@H](C(F)F)C4)n3n2)CC1` [Example 134, (S)-5-(3-(Difluoromethyl)pyrrolidin-1-yl)-N-(1-(methylsulfonyl)piperidin-4-yl)-6-(1H-pyrazol-4-yl)-[1,2,4]triazolo[1,5-a]pyrazin-2-amine], the IC50 is not above 20 nM. `CS(=O)(=O)N1CCC(Nc2nc3cnc(-c4cn[nH]c4)c(N4C5CCC4CC5)n3n2)CC1` [Example 135, 5-(7-Azabicyclo[2.2.1]heptan-7-yl)-N-(1-(methylsulfonyl)piperidin-4-yl)-6-(1H-pyrazol-4-yl)-[1,2,4]triazolo[1,5-a]pyrazin-2-amine]: the IC50 is not above 20 nM. Consider `CS(=O)(=O)N1CCC(Nc2nc3cnc(-c4cn[nH]c4)c(N4CCCC(C(F)(F)F)C4)n3n2)CC1` (stereo not shown) [Example 136, N-(1-(Methylsulfonyl)piperidin-4-yl)-6-(1H-pyrazol-4-yl)-5-(3-(trifluoromethyl)piperidin-1-yl)-[1,2,4]triazolo[1,5-a]pyrazin-2-amine], for which the IC50 was not above 20 nM.
